Patent US20260227303A1, “SYSTEMS AND METHODS FOR MEASURING PARTICLE SIZE IN TISSUE AND TURBID MEDIA” (The General Hospital Corporation, priority 2023, published 2026)

Test system: platelets in whole blood
Test: Platelet function testing: laser speckle particle sizing of platelet aggregate size in lysed whole blood
Format: cell-based, human
Procedure: To prepare the 4660 μM CPD stock solution, a Plavix tablet (e.g., 75 mg, Bristol-Meyer Squibb) was crushed to powder, mixed with 50 ml of deionized water, sonicated for 10 minutes, and incubated at 50° C. in a water bath for 3 minutes. Following institutional review board (IRB) approval, de-identified blood specimens from two patients undergoing routine coagulation testing were collected in 0.105 M sodium citrate vacutainer system (e.g., Becton & Dickinson, Co., Franklin Lakes, NJ, USA) from the MGH special coagulation laboratory. The specimen was divided into four samples of 66 μl. The first sample (control) was mixed with 20 μl of saline. The second sample was mixed 5 μl of saline and 10 μl of LB. The third sample was mixed with 5 μl of saline and 10 μl of LB, and 5 μl ADP stock solution (e.g., 5 μM, Helena Laboratories, Beaumont, TX, USA). Finally, the 4th and last sample was mixed 10 μl of LB 5 μl of ADP and 5 μl of diluted CPD (5 μM). The samples were loaded in imaging chambers and speckle image acquisition started promptly. For each of the specimens, both the parallel and perpendicularly polarized speckle frames were captured for 1 second, at 750 fps.
The third sample entailed 66 μl of whole blood plus 5 μl of PBS, 10 μl of lysis buffer, and 5 μl Adenosine diphosphate (ADP), a platelet agonist to initiate platelet aggregation. […]

| SMILES | estimated particle size (average radius) (66 μl whole blood + 5 μl PBS/saline + 10 μl RBC lysis buffer + 5 μl ADP, lysed blood without ADP 360 nm, increase likely reflects platelet aggregation) [μm] | estimated particle size (average radius) (66 μl whole blood + 10 μl RBC lysis buffer + 5 μl ADP + 5 μl CPD, reverts to the lysed-blood level (360 nm), potentially indicating disaggregation of platelets) [nm] |
| --- | --- | --- |
| Nc1ncnc2c1ncn2[C@@H]1O[C@H](COP(=O)(O)OP(=O)(O)O)[C@@H](O)[C@H]1O [ADP, Adenosine diphosphate] | 1.8 |  |
| COC(=O)[C@H](c1ccccc1Cl)N1CCc2sccc2C1 [CPD, clopidogrel bisulphate] |  | 367 |
